Test results from ChEMBL document CHEMBL3137667, “[Drug-induced liver injury; fourteenth updated edition of the bibliographic database of liver injuries and related drugs]” (Gastroenterol Clin Biol, 2004).

Columns and labels:
[1] = human
[2] = human; remark: listed apart in the source
[3] = human, serum, 4383 h
[4] = human; remark: listed apart in the source
[5] = human; remark: listed apart in the source
[6] = human; remark: listed apart in the source
[7] = human; remark: listed apart in the source
[8] = human; remark: listed apart in the source
[9] = human; remark: listed apart in the source
[10] = human; remark: listed apart in the source
[11] = Highest frequency of moderate liver toxicity observed during clinical trials, expressed as a percentage. [column '% BIOL' in source]; settings: human
[12] = Highest frequency of acute liver toxicity observed during clinical trials, expressed as a percentage. [column '% AIGUE' in source]; settings: human
[13] = human, serum
[14] = human, serum; remark: listed apart in the source
[15] = human; remark: listed apart in the source
[16] = Presence of at least one case with successful reintroduction. [column 'REINT' in source]; settings: human
[17] = Comments (NB not yet translated). [column 'COMMENTAIRES' in source]; settings: human
[18] = Times to onset, minimal and maximal, observed in the indexed observations. [column 'DELAI' in source]; settings: human
[19] = Proposed mechanism(s) of liver damage. [column 'MEC' in source]; settings: human
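For Hepatotoxicity (association with vascular disease) in this document: count of indexed literature references reporting vascular liver injury in humans, e.g. peliosis hepatitis, hepatic veno-occlusive disease or Budd-Chiari syndrome.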
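For Hepatotoxicity (benign tumour) in this document: value is a count of indexed literature references citing a benign tumour confirmed by histopathology.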
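For Hepatotoxicity (choleostasis) in this document: human cholestatic liver injury, shown by histopathology or by peak ALT or AST elevation over alkaline phosphatase ratio below 2, value counts indexed literature reports.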
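For Hepatotoxicity (chronic liver disease) in this document: chronic liver injury confirmed by histopathology or persistently raised serum aminotransferase activity beyond 6 months, value given as the count of indexed literature references.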
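For Hepatotoxicity (cirrhosis) in this document: value is a count of indexed literature references reporting cirrhosis confirmed by histopathology.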
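For Hepatotoxicity (cytolytic) in this document: human cytolytic liver injury, shown by histopathology or by a ratio above 5 of peak ALT or AST elevation to alkaline phosphatase elevation, value counts indexed references.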
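For Hepatotoxicity (granulomatous hepatitis) in this document: value is a count of indexed literature references reporting granulomatous liver disease confirmed by histopathology.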
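For Hepatotoxicity (malignant tumour) in this document: malignant tumour confirmed by histopathology, value gives the count of indexed literature references reporting it.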
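For Hepatotoxicity (severe hepatitis) in this document: human clinical data: severe hepatitis, meaning potentially life-threatening liver failure or clinically observed cases, the value counts how many indexed literature references report it.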
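For Hepatotoxicity (steatosis) in this document: steatosis confirmed by histopathology, value is the count of indexed references.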

| Compound | Hepatotoxicity (cytolytic) [1] | Hepatotoxicity (choleostasis) [2] | Hepatotoxicity (chronic liver disease) [3] | Hepatotoxicity (cirrhosis) [4] | Hepatotoxicity (granulomatous hepatitis) [5] | Hepatotoxicity (association with vascular disease) [6] | Hepatotoxicity (steatosis) [7] | Hepatotoxicity (malignant tumour) [8] | Hepatotoxicity (benign tumour) [9] | Hepatotoxicity (animal toxicity known) [10] | Hepatotoxicity (moderate) [11] | Hepatotoxicity (acute) [12] | Hepatotoxicity (moderate) [13] | Hepatotoxicity (acute) [14] | Hepatotoxicity (severe hepatitis) [15] | Hepatotoxicity (successful reintroduction) [16] | Hepatotoxicity (comment) [17] | Hepatotoxicity (time to onset) [18] | Hepatotoxicity (mechanism) [19] |
| --- | --- | --- | --- | --- | --- | --- | --- | --- | --- | --- | --- | --- | --- | --- | --- | --- | --- | --- | --- |
| CC1(C)[C@H](C(=O)O)N2C(=O)C[C@H]2S1(=O)=O.CCN1CCN(C(=O)N[C@@H](C(=O)N[C@@H]2C(=O)N3C(C(=O)O)=C(CSc4nnnn4C)CS[C@H]23)c2ccc(O)cc2)C(=O)C1=O | 0 | 0 | 0 | 0 | 0 | 0 | 0 | 0 | 0 | yes | – | – | – | – | – | – | – | – | – |
| Cc1cn([C@H]2CC[C@@H](CO)O2)c(=O)[nH]c1=O | 0 | 0 | 0 | 0 | 0 | 0 | 0 | 0 | 0 | yes | 30% | 0% | 1 | 0 | 0 | – | – | – | – |
| O=C(O)c1cc(/N=N/c2ccc(S(=O)(=O)Nc3ccccn3)cc2)ccc1O [SULFASALAZINE] | 31 | 14 | 2 | 0 | 11 | 0 | 1 | 0 | 0 | – | 26.7% | 5.7% | 44 | 50 | 11 | yes | DUCTOPENIE RC/COTRIMOXAZOLE/MESALAZINE/OLSALAZINE | 1 day - 1 year | Allergic |
| c1ccc2[nH]c(-c3cscn3)nc2c1 [THIABENDAZOLE] | 2 | 13 | 0 | 2 | 0 | 0 | 0 | 0 | 0 | – | 36% | 0% | 2 | 13 | 0 | yes | CHOLESTASE_PROLONGEE DUCTOPENIE #CBP | 2 weeks - 1.5 years | Allergic |
| O=C(O)c1cccs1 [THIOPHENE CARBOXYLIC ACID] | 3 | 0 | 0 | 0 | 0 | 0 | 0 | 0 | 0 | – | 0% | 0% | 0 | 3 | 0 | yes | AC_ANTI-ML | 3 days - 3 weeks | Allergic |
| CCOC(=O)NNc1nncc2ccccc12 [TODRALAZINE] | 3 | 0 | 0 | 0 | 0 | 0 | 0 | 0 | 0 | – | 0% | 0% | 0 | 3 | 2 | yes | AC_ANTI-N/-MF | 11 days - 2 years | Allergic |
| Cc1ccc(-c2nc3ccc(C)cn3c2CC(=O)N(C)C)cc1 [ZOLPIDEM] | 2 | 0 | 0 | 0 | 0 | 0 | 0 | 0 | 0 | – | 0.4% | 0% | 3 | 2 | 0 | yes | ENCEPHALOPATHIE | 1 day - 3 days | Dose-dependant |
| INTERFERON ALFA-2A | 7 | 2 | 0 | 1 | 0 | 0 | 0 | 0 | 0 | – | 92% | 35.7% | 50 | 10 | 2 | yes | AC_ANTI-ML/-N AGGRAVATION_HAI/HVB I/PARACETAMOL CBP | 1 week - 9 months | Allergic, Dose-dependant |
| INTERFERON ALFA-2B | 8 | 2 | 0 | 0 | 3 | 0 | 0 | 0 | 0 | – | 87.5% | 0% | 52 | 13 | 7 | yes | AGGRAVATION_CBP/HEPATITE_AUTOIMMUNE/HVB/HVC_CHRONIQUE CHOLANGITE | 1 week - 1 year | Dose-dependant |
| INTERFERON BETA | 5 | 0 | 0 | 0 | 0 | 0 | 0 | 0 | 0 | – | 100% | 31.2% | 33 | 10 | 1 | yes | AC_ANTI-N/-ML | 3 days - 2 years | Allergic, Dose-dependant |
